This passage reports IC50 results from US20250304537A1 (Repare Therapeutics Inc., priority 2022, published 2025).

Some results are limits rather than exact numbers.

In the first experiment the test system is PKMYT1 (CDK1 pThr14) in FUOV1 cells. Nature of the experiment: PKMYT1 cell-based activity assay, CDK1 pThr14 AlphaLISA in FUOV1 cells. To be noted: 2 h, 2 h compound incubation, read-out: FUOV-1 CDK1 pThr14 IC50. In outline: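 IC50 was derived from AlphaLISA signal (excitation 680 nm, emission 615 nm) for phospho-Thr14 CDK1 in lysates. The detection antibodies were rabbit anti-pThr14 and mouse anti-total CDK1, each at 5 nM. FUOV1 ovarian cells were exposed to compound for 2 hours before lysis.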
As usually defined, the IC50 is the concentration at which inhibition is half-maximal. As for `Cc1ccc2[nH]ncc2c1-c1nc(-c2cccnc2Nc2ncccn2)nc(C(N)=O)c1N` [Compound 726], the IC50 stood at 120 nM.
As for `Cc1ccc(F)nc1Nc1ncccc1-c1nc(C(N)=O)c(N)c(-c2c(C)ccc3[nH]ncc23)n1` [Compound 724], the IC50 stood at 13 nM.
The same measure, in the same setting: under `Cc1cccnc1Nc1cc(F)ccc1-c1nc(C(N)=O)c(N)c(-c2c(C)ccc3[nH]ncc23)n1` [Compound 671] stands 164 nM.
The same measure, in the same setting: under `Cc1ccc2[nH]ncc2c1-c1nc(-c2ccc(F)cc2Nc2ccncn2)nc(C(N)=O)c1N` [Compound 513] stands 16 nM.
Still for that read-out and setting: under `Cc1cccnc1Nc1nc(Cl)ccc1-c1nc(C(N)=O)c(N)c(-c2c(C)ccc3[nH]ncc23)n1` [Compound 736, 5-amino-2-(6-chloro-2-((3-methylpyridin-2-yl)amino)pyridin-3-yl)-6-(5-methyl-1H-indazol-4-yl)pyrimidine-4-carboxamide] stands 6 nM.
For the molecule `Cc1ccc2[nH]ncc2c1-c1nc(-c2ccc(F)cc2Nc2nccc(C(C)(C)C)n2)nc(C(N)=O)c1N` [Compound 576], the IC50 was 4580 nM.
Same read-out and setting: under `COc1ncc(F)c(Nc2cc(F)ccc2-c2nc(C(N)=O)c(N)c(-c3c(C)ccc4[nH]ncc34)n2)n1` [Compound 627] stands 12 nM; under `Cc1ccc2[nH]ncc2c1-c1nc(-c2cccnc2Nc2cccc(C#N)c2)nc(C(N)=O)c1N` [Compound 630], 150 nM; under `Cc1ccc2[nH]ncc2c1-c1nc(-c2ccc(C(F)(F)F)nc2Nc2ncccn2)nc(C(N)=O)c1N` [Compound 760], 201 nM.
As to `Cc1ccc2[nH]ncc2c1-c1nc(-c2ccc(F)cc2Nc2nccc(C#N)n2)nc(C(N)=O)c1N` [Compound 532], the IC50 is 21 nM.
Same read-out and setting: then `Cc1cncc(Nc2nc(C)ccc2-c2nc(C(N)=O)c(N)c(-c3c(C)ccc4[nH]ncc34)n2)n1` [Compound 688], with 180 nM; and `Cc1ccc2[nH]ncc2c1-c1cc2c(oc3ccc(OCc4cccnc4)nc32)c(C(N)=O)c1N` [Compound 569, 7-amino-8-(5-methyl-1H-indazol-4-yl)-2-(pyridin-3-ylmethoxy)benzofuro[3,2-b]pyridine-6-carboxamide], with 712 nM; and `Cc1ccc2[nH]ncc2c1-c1nc(-c2cc(F)cnc2NCC(C)(C)O)nc(C(N)=O)c1N` [Compound 683], with 65 nM.
`Cc1ccc2[nH]ncc2c1-c1nc(-c2ccc(Cl)cc2Nc2ncccn2)nc(C(N)=O)c1N` [Compound 654]: the IC50 stood at 77 nM.
The same measure, in the same setting: under `Cc1ccccc1Nc1ncccc1-c1nc(C(N)=O)c(N)c(-c2c(C)ccc3[nH]ncc23)n1` [Compound 657] stands 70 nM; under `Cc1ccc2[nH]ncc2c1-c1nc(-c2ccc(F)cc2Nc2ncncc2C#N)nc(C(N)=O)c1N` [Compound 655], 4 nM.
On the same count and under the same terms, under `Cc1cccc(-c2nc(C(N)=O)c(N)c(-c3c(C)ccc4[nH]ncc34)n2)c1Nc1ncccn1` [Compound 774] stands 563 nM; under `Cc1ccc2[nH]ncc2c1-c1nc(-c2cc(F)ccc2Nc2cnccn2)nc(C(N)=O)c1N` [Compound 490], 51 nM; under `Cc1ccc2[nH]ncc2c1-c1nc(-c2cccnc2N[C@@H]2CC[C@H](O)C2)nc(C(N)=O)c1N` [Compound 783], 35 nM.
In the case of `Cc1ccc2[nH]ncc2c1-c1nc(-c2cc(C#N)ccc2Nc2ncccn2)nc(C(N)=O)c1N` [Compound 789], the IC50 came out at 43 nM.
Turning to `Cc1ccc2[nH]ncc2c1-c1nc(-c2cc(F)cnc2NCC2(C#N)CC2)nc(C(N)=O)c1N` [Compound 705], the IC50 was determined as 33 nM.
The same measure, in the same setting: under `Cc1cccnc1Nc1nc(C#N)ccc1-c1nc(C(N)=O)c(N)c(-c2c(C)ccc3[nH]ncc23)n1` [Compound 737] stands 34 nM.
On to `Cc1ccc2[nH]ncc2c1-c1nc(-c2cc(F)c(F)cc2NC2COC2)nc(C(N)=O)c1N` [Compound 497], for which the 50% inhibitory concentration (IC50) was determined as 52 nM.
Same read-out and setting: under `Cc1ccc2[nH]ncc2c1-c1nc(-c2cc(F)ccc2NS(C)(=O)=O)nc(C(N)=O)c1N` [Compound 491] stands 45 nM; under `Cc1ccnnc1Nc1cc(F)ccc1-c1nc(C(N)=O)c(N)c(-c2c(C)ccc3[nH]ncc23)n1` [Compound 540], 9 nM; under `Cc1ccc(C)c(Nc2ncccc2-c2nc(C(N)=O)c(N)c(-c3c(C)ccc4[nH]ncc34)n2)n1` [Compound 707], 38 nM.
With `Cc1cccnc1Nc1cc(C#N)ccc1-c1nc(C(N)=O)c(N)c(-c2c(C)ccc3[nH]ncc23)n1` [Compound 754], the IC50 worked out at 17 nM.
The same measure, in the same setting: under `Cc1ccc2[nH]ncc2c1-c1nc(-c2cccnc2N[C@H]2CC[C@H](O)C2)nc(C(N)=O)c1N` [Compound 785] stands 22 nM.
Same read-out and setting: then `Cc1ccc2[nH]ncc2c1-c1nc(-c2ccc(C(F)(F)F)nc2Nc2nccnc2Cl)nc(C(N)=O)c1N` [Compound 771], with 96 nM.
On the same count and under the same terms, under `Cc1ccc(Cl)nc1Nc1ncccc1-c1nc(C(N)=O)c(N)c(-c2c(C)ccc3[nH]ncc23)n1` [Compound 742] stands 5 nM; under `Cc1ccc2[nH]ncc2c1-c1nc(-c2ncccc2NCC(F)(F)F)nc(C(N)=O)c1N` [Compound 538], 33 nM.
In the case of `Cc1ccc2[nH]ncc2c1-c1nc(-c2ccc(F)cc2Nc2nncs2)nc(C(N)=O)c1N` [Compound 579], the IC50 came out at 13 nM.
The same measure, in the same setting: then `C[C@]1(O)C[C@@H](Nc2nc(Cl)ccc2-c2nc(C(N)=O)c(N)c(-c3c(Cl)ccc4[nH]ncc34)n2)C1` [Compound 790], with 271 nM; and `Cc1ccc2[nH]ncc2c1-c1nc(-c2cc(F)c(F)cc2NC2CCCC2(C)C)nc(C(N)=O)c1N` (centres unmarked) [Compound 488], with 861 nM; and `COCCCNc1ncccc1-c1nc(C(N)=O)c(N)c(-c2c(C)ccc3[nH]ncc23)n1` [Compound 537], with 256 nM.
For `Cc1ccc2[nH]ncc2c1-c1nc(-c2ccc(F)cc2Nc2ccnnc2)nc(C(N)=O)c1N` [Compound 553], the concentration for half-maximal inhibition (IC50) was determined as 183 nM.
Take `Cc1ccc2[nH]ncc2c1-c1nc(-c2cc(F)cnc2N[C@H]2C[C@H](O)C2)nc(C(N)=O)c1N` [Compound 690]: the IC50 came to 16 nM.
For the molecule `Cc1ccc2[nH]ncc2c1-c1nc(-c2cccnc2NC2CCCOC2)nc(C(N)=O)c1N` (centres unmarked) [Compound 582], the IC50 stood at 15 nM.
In the case of `Cc1ccc2[nH]ncc2c1-c1nc(-c2cccnc2Nc2nc(F)ccc2F)nc(C(N)=O)c1F` [Compound 500, 2-(2-((3,6-difluoropyridin-2-yl)amino)pyridin-3-yl)-5-fluoro-6-(5-methyl-1H-indazol-4-yl)pyrimidine-4-carboxamide], the IC50 was 437 nM.
On to `Cc1ccc2[nH]ncc2c1-c1nc(-c2cccnc2NCCN2CCOCC2)nc(C(N)=O)c1N` [Compound 703], for which the IC50 turned out to be 680 nM.

Still in this experiment, the particulars now being: 2 h, 2 h incubation, read-out: FUOV-1 CDK1 pThr14 IC50.
For `Cc1ccc2[nH]ncc2c1-c1cc(-c2ccnc(OCC3(C#N)CC3)n2)nc(C(N)=O)c1N` [Compound 324], the IC50 is 303 nM.

The same experiment, now with this note: 2 h, 2 hours with compound, read-out: FUOV-1 CDK1 pThr14 IC50.
As for `Cc1ccc(-c2nc(C(N)=O)c(N)c(-c3c(C)ccc4[nH]ncc34)n2)c(Nc2ncccc2F)n1` [Compound 911], the IC50 stood at 1 nM.
With `Cc1c(F)cc2[nH]ncc2c1-c1nc(-c2cccnc2NC2CC2)nc(C(N)=O)c1N` [Compound 848], the IC50 came out at 78 nM.
On the same count and under the same terms, then `Cc1cc(F)c2[nH]ncc2c1-c1nc(-c2cc(F)cnc2N[C@H]2CCOC2)nc(C(N)=O)c1N` [Compound 869], with 55 nM; and `Cc1ccc2[nH]ncc2c1-c1nc(-c2ccc(F)nc2Nc2nc(F)ccc2F)nc(C(N)=O)c1N` [Compound 921], with 4 nM; and `Cc1ccc2[nH]ncc2c1-c1nc(-c2ccncc2Nc2ncccn2)nc(C(N)=O)c1N` [Compound 951], with 16 nM.
As to `Cc1ccc2[nH]ncc2c1-c1nc(-c2cc(F)cnc2OC2CC(C)(O)C2)nc(C(N)=O)c1N` (centres unmarked) [Compound 841], the IC50 was found to be 1120 nM.
As to `Cc1cc(F)c2[nH]ncc2c1-c1nc(-c2cccnc2NC2CC2)nc(C(N)=O)c1N` [Compound 871], the IC50 worked out at 39 nM.
Still for that read-out and setting: then `Cc1ccc2[nH]ncc2c1-c1nc(-c2ccc(F)cc2NC2CCOCC2)nc(C(N)=O)c1N` [Compound 857], with 75 nM.
Same read-out and setting: under `[2H]C([2H])([2H])c1ccc2[nH]ncc2c1-c1nc(-c2cccnc2NC23CC(C#N)(C2)C3)nc(C(N)=O)c1N` [Compound 957, 5-amino-2-[2-[(3-cyano-1-bicyclo[1.1.1]pentanyl)amino]-3-pyridyl]-6-[5-(trideuteriomethyl)-1H-indazol-4-yl]pyrimidine-4-carboxamide] stands 160 nM; under `Cc1cc(F)c2[nH]ncc2c1-c1nc(-c2ccc(C(F)F)nc2Nc2nccnc2Cl)nc(C(N)=O)c1N` [Compound 909], 107 nM; under `Cn1cc(-c2nc(C(N)=O)c(N)c(-c3c(Cl)ccc4[nH]ncc34)n2)c(NC2CCCC2)n1` [Compound 920], 118 nM.
Take `Cc1ccc2[nH]ncc2c1-c1nc(-c2ccc(Cl)nc2NC2CC(F)(F)C2)nc(C(N)=O)c1N` [Compound 802]: the IC50 turned out to be 743 nM.
On to `Cc1cc(F)c2[nH]ncc2c1-c1nc(-c2ccc(F)nc2Nc2ncccc2C(F)F)nc(C(N)=O)c1N` [Compound 878], for which the IC50 came out at 36 nM.
On the same count and under the same terms, then `Cc1ccc2[nH]ncc2c1-c1nc(-c2ccc(C#N)cc2N[C@H]2C[C@](C)(O)C2)nc(C(N)=O)c1N` [Compound 821], with 71 nM; and `Cc1ccc2[nH]ncc2c1-c1nc(-c2cnsc2NC2CCOCC2)nc(C(N)=O)c1N` [Compound 856], with 35 nM; and `Cc1ccc2[nH]ncc2c1-c1nc(-c2cc(F)cnc2N[C@H](C)C(F)(F)F)nc(C(N)=O)c1N` [Compound 889], with 56 nM.
Still for that read-out and setting: under `Cc1ccc2[nH]ncc2c1-c1nc(-c2ccc(F)nc2Nc2ncccc2C#N)nc(C(N)=O)c1N` [Compound 934] stands 12 nM.

The experiment is the same for the next values; noted with them: 2 h incubation, read-out: FUOV-1 CDK1 pThr14 IC50.
`Cc1ccc2[nH]ncc2c1-c1cc(-c2ccnc(OCC(F)(F)F)n2)nc(C(N)=O)c1N` [Compound 165]: the IC50 is over 10000 nM.
